Data from patent US3935229A, “Esters of 2-[(4-quinolyl)amino]-benzoic acids” (Synthelabo, priority 1973, dated 1976).
Counter-ions that a name gives are not always drawn. Like-named read-outs stand apart in the source and are kept apart here.

Experiments:
[1] = tested on: mice of both sexes, of the Swiss strain; assay: in vivo; details: mice, oral administration
Experimental: Tests were carried out on mice of both sexes, of the Swiss strain, of average weight 20 g. (± 2g.).

[2] = tested on: carragenine-induced oedema of the paw, Sherman rats; assay: Carragenine-induced oedema test (oedema of the paw); type: in vivo; details: Rattus norvegicus, read-out: Carragenine-induced oedema test AD (AD40 = 40% active dose)
[3] = tested on: heated plate test, Swiss mice; assay: Heated plate test (plate heated by acetone vapours; analgesic effects of the central type); details: oral
[4] = tested on: pain induced, in Swiss mice, by the intraperitoneal injection of phenylquinone; assay: Siegmund test (analgesic effect against pain induced by intraperitoneal phenylquinone); type: in vivo; details: for ED50: Mus musculus; for analgesic effects of the peripheral type (Siegmund test), compared with amidopyrine and glafenine: oral, versus amidopyrine and glafenine
Source text: 1. Effect against pain induced, in Swiss mice, by the intraperitoneal injection of phenylquinone, in accordance with the experimental procedure of Siegmund (Proc. Soc. Exp. Biol. Med., 1957, 95, 729), modified by Cheymol (C.R. Soc. Biol., 1963, 157, 521) and Brittain (Nature, London, 1963, […], 895).

[5] = po, read-out: Siegmund test AD50 (50% active dose), mice, oral administration

Structure (SMILES) | Acute toxicity LD50 (50% lethal dose) [1] | ED40 ([2]; rats, oral administration) | analgesic effects of the central type (heated plate test), compared with amidopyrine ([3]; versus amidopyrine) | ED50 ([4]; mice, oral administration, read-out: Siegmund test AD50 (50% active dose)) | analgesic effects of the peripheral type (Siegmund test), compared with amidopyrine and glafenine ([4]; mice) | Acute toxicity LD50 (50% lethal dose) ([1]; dihydrochloride) | ED40 ([2]; po) | extent of the greater activity than amidopyrine in the heated plate test ([3]; versus amidopyrine) | ED50 [4, 5] | central component of the analgesic effect (heated plate test) [3]
O=C(OCCN1CCN(c2cccc(C(F)(F)F)c2)CC1)c1ccccc1Nc1ccnc2cc(Cl)ccc12 [Compound 72-391, 2-(4'-m-Trifluoromethylphenyl-piperazino)-ethyl 2-(7'-chloro-4'-quinolyl-amino)-benzoate] | 2,500 mg/kg | 40 mg/kg | greater than that of amidopyrine | 20 mg/kg | generally much more active |  |  |  |  | 
O=C(OCCN1CCN(c2cccc(C(F)(F)F)c2)CC1)c1ccccc1Nc1ccnc2cc(C(F)(F)F)ccc12 [Compound 73-017, 2-(4'-m-trifluoromethylphenyl-piperazino)-ethyl 2-(7'-trifluoromethyl-4'-quinolyl-amino)-benzoate dihydrochloride] |  |  | greater than that of amidopyrine |  | generally much more active | 1,500 mg/kg | 60 mg/kg | considerable | 4 mg/kg | 
O=C(OCC(O)CO)c1ccccc1Nc1ccnc2cc(Cl)ccc12 (stereo not drawn) [Glafenine, reference compound] | 3,500 mg/kg |  |  |  |  |  | 30 mg/kg |  | 50 mg/kg | much less strong
